The text below walks through data of ChEMBL document CHEMBL4477196, “Rhodocomatulin-Type Anthraquinones from the Australian Marine Invertebrates Clathria hirsuta and Comatula rotalaria” (2016).

The test system of the test is MCF7. Put plainly: Growth inhibition of human MCF7 cells at 10 uM incubated for 72 hrs by SRB assay. It counts as functional. Conditions: MCF7, 72 h, read-out: GI.

For the molecule `CCCC(=O)c1c(O)cc(O)c2c1C(=O)c1cc(OC)cc(OC)c1C2=O`, the inhibition of growth at 10 µM amounted to 9%.
